This note sets out measurements from ChEMBL document CHEMBL4689842, “EUbOPEN Chemogenomics Library wave 1” (2021).

What all share (type): toxicity, cell-based
In one series the test system is U2OS. As to the kind of experiment: Incucyte cell viability with U2OS. The conditions noted are these: human, 10 µM, compound concentration 10 uM.
For another series, the system named is HEK-293T. As to the kind of experiment: Incucyte cell viability with HEK293T. The conditions noted are these: human, 10 µM, compound concentration 10 uM.
The test system of a further series is Fibroblast. As to the kind of experiment: Incucyte cell viability with human fibroblast. The conditions noted are these: 10 µM, compound concentration 10 uM.
The mark [1] stands for this setting: 0 h, replicate number 1, timepoint 0 hours.
[2] abbreviates: 6 h, replicate number 1, timepoint 6 hours.
The mark [3] stands for this setting: 12 h, replicate number 1, timepoint 12 hours.
The mark [4] stands for this setting: 12 h, replicate number 2, timepoint 12 hours.
[5] abbreviates: 18 h, replicate number 1, timepoint 18 hours.
Where [6] appears, read: 18 h, replicate number 2, timepoint 18 hours.
The mark [7] stands for this setting: 24 h, replicate number 1, timepoint 24 hours.
Setting [8] is: 24 h, replicate number 2, timepoint 24 hours.
[9] abbreviates: 6 h, replicate number 2, timepoint 6 hours.
[10] abbreviates: 0 h, replicate number 2, timepoint 0 hours.
Also: filed as whole numbers so only -1 and 0 and 1 occur.

Consider `O=C1NC(c2ccccn2)Sc2ccccc21` (centres undefined) [BTZO-4], for which the “Growth Rate” value is 0 in the series with U2OS (setting [1]); 0 in the series with U2OS (setting [2]); 0 in the series with U2OS (setting [3]); 1 with U2OS (setting [4]); 0 with U2OS (setting [5]); 1 in the series with U2OS (setting [6]). For the same compound, the “Growth Rate” value is 0 in the series with U2OS (setting [7]); 1 in the series on U2OS (setting [8]); 1 in the series on HEK-293T (setting [1]); 0 with HEK-293T (setting [2]); 0 with HEK-293T (setting [3]); 0 in the series on HEK-293T (setting [5]). Moreover, the “Growth Rate” value with HEK-293T (setting [6]) turned out to be 1; in the series on HEK-293T (setting [7]), 1; in the series with HEK-293T (setting [8]), 0; in the series on Fibroblast (setting [1]), 0; with Fibroblast (setting [2]) it was 1; with Fibroblast (setting [3]) it was 1. Moreover, the “Growth Rate” value in the series with Fibroblast (setting [5]) stood at 1; with Fibroblast (setting [7]), 0; in the series on Fibroblast (setting [8]), 1.
As for `COC1CCN(c2cccc(-c3cc(NC(C)=O)nc(-n4nc(C)cc4C)n3)n2)CC1`, the “Growth Rate” value in the series with U2OS (setting [1]), in the series with U2OS (setting [9]), with U2OS (setting [3]), with U2OS (setting [5]), in the series on U2OS (setting [7]) and in the series on HEK-293T (setting [1]) was 0 each time. The “Growth Rate” value in the series on HEK-293T (setting [2]) is 0; with HEK-293T (setting [3]) it was 0; in the series with HEK-293T (setting [5]) it was 0; in the series on HEK-293T (setting [7]), 0; in the series with Fibroblast (setting [1]), 0; in the series with Fibroblast (setting [2]) it was 1. The “Growth Rate” value is 0 with Fibroblast (setting [9]); 1 with Fibroblast (setting [3]); 0 in the series on Fibroblast (setting [4]); 1 in the series on Fibroblast (setting [5]); 0 in the series on Fibroblast (setting [6]); 0 in the series on Fibroblast (setting [7]).
Turning to `C[C@]12CCC(=O)C=C1CC[C@@H]1[C@@H]2[C@@H](O)C[C@]2(C=O)[C@@H](C(=O)CO)CC[C@@H]12` [ALDOSTERONE], the “Growth Rate” value turned out to be 0 in the series on U2OS (setting [1]); 1 with U2OS (setting [9]); 1 with U2OS (setting [3]); 1 in the series with U2OS (setting [5]); 1 in the series on U2OS (setting [7]); 0 in the series on HEK-293T (setting [1]). Moreover, the “Growth Rate” value in the series with HEK-293T (setting [9]) came out at 1; in the series with HEK-293T (setting [3]), 1; with HEK-293T (setting [4]), 0; with HEK-293T (setting [5]) it was 1; with HEK-293T (setting [7]) it was 1; in the series with Fibroblast (setting [1]), 0. The “Growth Rate” value in the series on Fibroblast (setting [10]) is 1; in the series with Fibroblast (setting [2]), 0; with Fibroblast (setting [3]) it was 1; in the series on Fibroblast (setting [4]), 0; in the series on Fibroblast (setting [5]) it was 1; in the series with Fibroblast (setting [6]), 0. For the same compound, in the series on Fibroblast (setting [7]), the “Growth Rate” value was found to be 1.
For `NS(=O)(=O)c1c(Cl)ccc(NC(=O)Nc2cccc(Cl)c2Cl)c1O`, the “Growth Rate” value is 0 in the series with U2OS (setting [1]); 0 in the series on U2OS (setting [3]); 1 in the series on U2OS (setting [5]); 1 with U2OS (setting [7]); 0 in the series with U2OS (setting [8]); 1 in the series on HEK-293T (setting [1]). Also, the “Growth Rate” value with HEK-293T (setting [10]) amounted to 0; with HEK-293T (setting [2]), 1; in the series on HEK-293T (setting [3]), 1; in the series with HEK-293T (setting [5]), 0; in the series on HEK-293T (setting [6]), 1; in the series on HEK-293T (setting [7]), 0. Besides, the “Growth Rate” value with HEK-293T (setting [8]) worked out at 1; with Fibroblast (setting [1]) it was 0; with Fibroblast (setting [10]), 1; in the series with Fibroblast (setting [9]), 0; in the series with Fibroblast (setting [3]), 1; with Fibroblast (setting [4]), 0. For the same compound, the “Growth Rate” value was found to be 1 in the series with Fibroblast (setting [5]), 0 with Fibroblast (setting [6]), 1 in the series with Fibroblast (setting [7]) and 0 in the series with Fibroblast (setting [8]).
As for `OCCn1cc(-c2cnc3nnn(Cc4ccc5ncccc5c4)c3n2)cn1` [PF-04217903], the “Growth Rate” value in the series with U2OS (setting [10]) stood at 0; with U2OS (setting [2]), 1; in the series on U2OS (setting [9]), 0; in the series on U2OS (setting [3]) it was 1; in the series with U2OS (setting [4]) it was 0; in the series on U2OS (setting [5]), 1. The “Growth Rate” value in the series with U2OS (setting [6]) is 0; with U2OS (setting [7]), 1; with U2OS (setting [8]), 0; with HEK-293T (setting [1]), 1; in the series on HEK-293T (setting [2]), 0; in the series on HEK-293T (setting [3]), 1. The “Growth Rate” value was determined as 1 in the series with HEK-293T (setting [5]); 1 in the series with HEK-293T (setting [7]); 0 in the series with Fibroblast (setting [1]); 1 with Fibroblast (setting [2]); 0 in the series with Fibroblast (setting [9]); 0 in the series with Fibroblast (setting [4]). The figures for the “Growth Rate” value in the series with Fibroblast (setting [5]), in the series with Fibroblast (setting [6]) and in the series with Fibroblast (setting [7]) were 1, 0 and 1, respectively.
Regarding `COc1cc(N2CCC(N3CCN(C)CC3)CC2)ccc1Nc1ncc(Cl)c(Nc2ccccc2P(C)(C)=O)n1` [BRIGATINIB], the “Growth Rate” value with U2OS (setting [1]) was found to be 0; in the series with U2OS (setting [2]), 0; in the series on U2OS (setting [3]) it was 0; in the series on U2OS (setting [4]), 1; in the series with U2OS (setting [5]), 0; in the series on U2OS (setting [7]), 0. The “Growth Rate” value in the series with HEK-293T (setting [2]) was determined as 0; in the series on HEK-293T (setting [3]), 0; in the series on HEK-293T (setting [5]), 1; in the series on HEK-293T (setting [7]) it was 1; with HEK-293T (setting [8]), 0; with Fibroblast (setting [1]), 1. Besides, the “Growth Rate” value in the series on Fibroblast (setting [2]), in the series on Fibroblast (setting [3]), in the series on Fibroblast (setting [5]) and in the series with Fibroblast (setting [7]) was 0 each time.
For the compound `CC[C@H](CO)Nc1nc(NCc2ccccc2)c2ncn(C(C)C)c2n1` [SELICICLIB], the “Growth Rate” value in the series with U2OS (setting [1]) amounted to 1; in the series with U2OS (setting [10]), 0; with U2OS (setting [2]), 0; with U2OS (setting [3]), 0; in the series on U2OS (setting [4]), 1; in the series with U2OS (setting [5]) it was 0. Moreover, the “Growth Rate” value is listed as 0 in the series on U2OS (setting [7]); 0 in the series with HEK-293T (setting [1]); 1 in the series on HEK-293T (setting [10]); 0 in the series on HEK-293T (setting [9]); 0 with HEK-293T (setting [4]); 1 in the series with HEK-293T (setting [5]). Further, the “Growth Rate” value with HEK-293T (setting [7]), in the series on Fibroblast (setting [10]), in the series with Fibroblast (setting [2]), with Fibroblast (setting [3]), in the series on Fibroblast (setting [5]) and with Fibroblast (setting [7]) was 0 each time.
Regarding `CC[C@@H]1CN2C(=O)N(C)c3nc(-c4ccccc4)[nH]c3C2=N1.Cl`, the “Growth Rate” value came to 0 in the series with U2OS (setting [10]); 1 in the series on U2OS (setting [9]); 0 in the series on U2OS (setting [4]); 1 in the series on U2OS (setting [5]); 1 in the series with U2OS (setting [7]); 1 with HEK-293T (setting [1]). In addition, the “Growth Rate” value with HEK-293T (setting [10]) came out at 0; with HEK-293T (setting [2]), 1; in the series on HEK-293T (setting [3]), 1; in the series on HEK-293T (setting [5]) it was 1; with HEK-293T (setting [7]) it was 1; in the series with Fibroblast (setting [1]) it was 0. The “Growth Rate” value in the series on Fibroblast (setting [3]) was 1; in the series on Fibroblast (setting [4]), 0; in the series on Fibroblast (setting [5]) it was 1; in the series with Fibroblast (setting [7]) it was 1.
`N#Cc1c[nH]c2c(C(=O)N3CCN(CCc4ccc(F)cc4)CC3)cccc12` [PRUVANSERIN]: the “Growth Rate” value with U2OS (setting [1]) was determined as 1; in the series on U2OS (setting [9]), 0; in the series on U2OS (setting [3]), 1; in the series with U2OS (setting [4]), 0; in the series on U2OS (setting [5]), 0; with U2OS (setting [6]), 1. Further, the “Growth Rate” value with U2OS (setting [7]), in the series with HEK-293T (setting [10]), with HEK-293T (setting [2]), with HEK-293T (setting [3]), in the series on HEK-293T (setting [5]) and with HEK-293T (setting [7]) was 0 throughout. Further, the “Growth Rate” value in the series on Fibroblast (setting [1]), in the series on Fibroblast (setting [2]), in the series with Fibroblast (setting [3]), with Fibroblast (setting [5]) and in the series with Fibroblast (setting [7]) was 0 in each case.
Take `O=C(c1ccc(C(=O)N2CCC(N3CCCC3)CC2)c(Nc2ccccc2)c1)N1CCC(N2CCCC2)CC1`: the “Growth Rate” value with U2OS (setting [9]) is 1; in the series with U2OS (setting [3]), 1; in the series with U2OS (setting [5]) it was 1; with U2OS (setting [7]), 1; in the series on HEK-293T (setting [10]) it was 0; in the series with HEK-293T (setting [7]), 1. For the same compound, the “Growth Rate” value with Fibroblast (setting [1]) is recorded as 0; with Fibroblast (setting [2]) it was 1; in the series on Fibroblast (setting [3]), 1; in the series on Fibroblast (setting [5]) it was 1; in the series with Fibroblast (setting [7]) it was 1.
